# Tests used:
# [1] = tested on: HMOX1 gene; test: HMOX1 mRNA expression in HepG2 cells (Nanostring); assay type: cell-based, human; conditions: 24 hours treatment
# Procedure: Example 147. HMOX1 Inducers of the Invention Strongly Increase In Vitro Expression of HMOX1
# (§1) RNA Isolation and Quantification of Gene Expression
# (§2) HepG2 cells were seeded at 250 k/well in 12-well tissue culture plates coated with collagen (collagen I, rat tail (thin plate coating); ENZO Life Sciences) for approximately 24 hours. The seeded cells were then treated with dose titration of the compound of Example 17 or dimethyl fumarate (DMF) (a Nrf2 activator; Fisher Scientific) via media change, with biological triplicates performed for each treatment. After approximately 24 hours of treatment, cells were visually inspected to confirm that no toxicity occurred with compound treatment. The treated cells were washed with PBS, aspirated, parafilmed and frozen at −80° C. prior to RNA isolation. RNA was isolated using Machery-Nagel isolation kit (NucleoSpin® RNA: catalog 740955.250) and then quantitated using ThermoFisher Nanodrop.
# RNA was diluted for Nanostring gene expression analysis. […]
# The relative mRNA levels of the HMOX1 gene in HepG2 cells treated with the compound of Example 17 or DMF were measured according to the methods described above. […]
# [2] = tested on: Human Heme Oxygenase-1 (HMOX-1); test: ELISA assay to measure human heme oxygenase-1 (HMOX-1) in HepG2 lysate; assay type: cell-based; conditions: fold change of human HMOX1 protein levels relative to DMSO control, HepG2
# Procedure, shortened: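 HepG2 cells lysed in PBS/0.5% Triton X-100/1 mM EDTA with protease inhibitors; lysate diluted 1:20. Sandwich ELISA: anti-HO-1 capture (8 μg/ml), biotinylated detection antibody (200 ng/ml), streptavidin-HRP, chemiluminescent read. Quantified against 12-point HO-1 standard curve from 20 ng/ml; incubations at 20 °C.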
# [3] = tested on: FTH1; test: FTH1 mRNA expression in HepG2 cells (Nanostring); assay type: cell-based, human; conditions: 24 hours treatment
# Procedure: as §1, §2
# RNA was diluted for Nanostring gene expression analysis. The diluted RNA at an input of 200ng RNA was run on a Nanostring instrument, which was supported with nCounter® SPRINT Profiler System and nSolver4.0 Software, nCounter® SPRINT Cartridge, nCounter® SPRINT Reagent Pack, and nCounter© SPRINT Hybridization Buffer. Analysis was done manually using raw data obtained from nSolver4.0 Software. CLTC, POLR2A, RPL27 and TBP were used as reference genes for normalization. Data was graphed as fold change compared to DMSO treatment. […]
structure (smiles),measurement,setting,value
"Cn1c(Nc2nc3ccccc3o2)nc2cc(C(=O)NCCOCCO)ccc21 [Example 17, 2-(benzo[d]oxazol-2-ylamino)-N-(2-(2-hydroxyethoxy)ethyl)-1-methyl-1H-benzo[d]imidazole-5-carboxamide]","HMOX1 expression, 30 μM compound of Example 17 relative to 250 μM DMF",[1],4 times
same,HMOX1 expression compared with DMF,[1]; mRNA fold change vs DMSO,much more strongly than DMF
same,Maximum Fold induction,[2],11-40
same,FTH1 expression fold increase,[3],comparable fold increases

# From patent US20240051952A1, “HMOX1 INDUCERS” (Mitobridge Inc., priority 2019, published 2024)
